Patent US20120270875A1, “PYRIMIDINE AMIDE COMPOUNDS” (priority 2011, published 2012)

target: sLFA-1/ICAM-1 (Homo sapiens, UniProt P05107+P20701, DEL701-769); test: sLFA-1/ICAM-1 ELISA; assay type: binding; settings: sLFA-1 coated plates, 5dICAM-Fc binding, ELISA; read-out: LFA-1/ICAM (IC50)
Experimental: sLFA-1/ICAM-1 ELISA and Mac-1/ICAM-1 ELISA
Plates were coated with either 50 μl/well of 2.0 ug/ml solution of sLFA-1 or Mac-1 receptor in divalent cation buffer (1 mM MnCl2, 0.14M NaCl, 20 mM HEPES pH 7.2) at 4° C. overnight. Two hundred fifty μl of blocking buffer (1% BSA in divalent cation buffer) was added to each well 1 hour at 37° C. Plates were washed 3 times with wash buffer (TBS/0.05% Tween-20/1 mM MnCl2). The compound to be tested was solubilized in DMSO. A series of 1:3 dilutions were performed to achieve a concentration range of 0.45 nM-3 uM. Fifty μl of binding buffer (0.5% BSA in divalent cation buffer)/1% DMSO and 50 μl of the solutions to be tested were added to the appropriate wells and incubated for 1 hour. Fifty μl of 5dICAM-Fc (27 ng/ml) was added to the appropriate wells and 50 μl binding buffer was added to non-specific binding wells and incubated for 2 hours and washed. One hundred μl of 1:4000 HRP-goat anti-huIgG was added to each well and incubated for 1 hour and washed. One hundred μl of 1:1 TMB solution was added to each well and developed for 20 min at room temperature. Color development was stopped by adding 100 μl H3PO4 to each well. Absorbance was measured at 450 nm.

Chain of sLFA-1/ICAM-1 (P20701 26-1090 limits assumed, stated change not applied): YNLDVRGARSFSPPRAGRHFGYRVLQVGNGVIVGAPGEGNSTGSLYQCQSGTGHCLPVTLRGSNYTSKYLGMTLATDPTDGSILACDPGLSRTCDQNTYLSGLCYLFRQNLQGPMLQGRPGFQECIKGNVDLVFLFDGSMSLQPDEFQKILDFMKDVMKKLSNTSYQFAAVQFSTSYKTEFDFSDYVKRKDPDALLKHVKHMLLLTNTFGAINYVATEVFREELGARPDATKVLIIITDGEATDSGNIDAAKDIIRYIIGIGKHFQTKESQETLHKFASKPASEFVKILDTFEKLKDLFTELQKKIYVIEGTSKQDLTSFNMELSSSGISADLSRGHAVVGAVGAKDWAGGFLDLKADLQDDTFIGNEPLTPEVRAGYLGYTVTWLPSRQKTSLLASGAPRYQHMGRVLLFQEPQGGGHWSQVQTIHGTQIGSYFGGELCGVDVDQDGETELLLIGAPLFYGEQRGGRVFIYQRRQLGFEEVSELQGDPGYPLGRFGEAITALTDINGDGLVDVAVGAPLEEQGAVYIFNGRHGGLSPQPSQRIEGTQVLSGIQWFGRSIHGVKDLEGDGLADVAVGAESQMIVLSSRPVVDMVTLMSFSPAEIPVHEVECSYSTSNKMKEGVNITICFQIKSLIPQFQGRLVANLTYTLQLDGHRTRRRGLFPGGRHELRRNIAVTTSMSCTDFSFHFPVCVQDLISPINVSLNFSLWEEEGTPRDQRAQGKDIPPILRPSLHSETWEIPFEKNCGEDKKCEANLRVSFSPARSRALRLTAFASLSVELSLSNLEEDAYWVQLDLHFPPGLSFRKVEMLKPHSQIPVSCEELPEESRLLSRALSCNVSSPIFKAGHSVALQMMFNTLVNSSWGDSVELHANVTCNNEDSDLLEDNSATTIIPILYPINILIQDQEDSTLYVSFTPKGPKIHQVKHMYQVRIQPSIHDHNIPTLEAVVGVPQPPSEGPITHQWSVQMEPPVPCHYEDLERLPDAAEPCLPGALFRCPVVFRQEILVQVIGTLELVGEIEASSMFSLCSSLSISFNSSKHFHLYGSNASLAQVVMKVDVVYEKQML
Chain of sLFA-1/ICAM-1 (P05107 23-700 limits assumed, stated change not applied): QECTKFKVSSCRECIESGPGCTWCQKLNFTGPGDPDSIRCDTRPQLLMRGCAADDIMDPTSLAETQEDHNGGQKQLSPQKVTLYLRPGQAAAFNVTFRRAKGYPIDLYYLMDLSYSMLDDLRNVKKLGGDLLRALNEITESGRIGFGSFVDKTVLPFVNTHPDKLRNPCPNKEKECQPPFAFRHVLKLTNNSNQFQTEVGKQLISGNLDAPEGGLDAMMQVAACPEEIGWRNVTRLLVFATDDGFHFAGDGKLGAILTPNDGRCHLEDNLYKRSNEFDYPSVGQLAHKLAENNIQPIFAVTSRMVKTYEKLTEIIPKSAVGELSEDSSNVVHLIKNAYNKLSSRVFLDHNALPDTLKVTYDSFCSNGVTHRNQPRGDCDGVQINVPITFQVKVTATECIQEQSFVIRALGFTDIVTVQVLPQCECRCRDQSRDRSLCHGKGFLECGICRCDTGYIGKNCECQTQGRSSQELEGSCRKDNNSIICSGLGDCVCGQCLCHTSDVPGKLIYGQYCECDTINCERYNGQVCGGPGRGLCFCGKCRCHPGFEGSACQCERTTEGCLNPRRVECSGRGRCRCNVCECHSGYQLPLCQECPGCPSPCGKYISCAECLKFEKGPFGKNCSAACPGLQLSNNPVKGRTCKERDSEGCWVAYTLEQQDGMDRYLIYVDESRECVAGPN

IC50	Compound
0.353 µM	Cc1nc(NCCCc2cccc(O)c2)nc(C)c1C(=O)N[C@@H](CNC(=O)c1csc(-c2ccncc2)n1)C(=O)O (single isomer, unassigned) [Example 41]
0.191 µM	Cc1nc(NCc2ccccc2-c2cccc(O)c2)nc(C)c1C(=O)N[C@@H](CNC(=O)c1cccs1)C(=O)O [Example 12, (S)-2-({2-[(3′-hydroxy-biphenyl-2-ylmethyl)-amino]-4,6-dimethyl-pyrimidine-5-carbonyl}-amino)-3-[(thiophene-2-carbonyl)-amino]-propionic acid]
0.5 µM	Cc1nc(NCc2ccccc2-c2ccccc2O)nc(C)c1C(=O)N[C@@H](CNC(=O)c1cccs1)C(=O)O [Example 14, (S)-2-({2-[(2′-hydroxy-biphenyl-2-ylmethyl)-amino]-4,6-dimethyl-pyrimidine-5-carbonyl}-amino)-3-[(thiophene-2-carbonyl)-amino]-propionic acid]
0.309 µM	Cc1nc(NC2CCc3cc(O)ccc3C2)nc(C)c1C(=O)N[C@@H](CNC(=O)c1cccs1)C(=O)O (stereo partly drawn) [Example 17, (S) 2-(2-[6-hydroxy-1,2,3,4-tetrahydro-naphthalen-2-ylamino]-4,6-dimethyl-pyrimidine-5-carbonyl-amino)-3-[(thiophene-2-carbonyl)-amino]-propionic acid]
0.048 µM	Cc1nc(NC2CCc3cccc(O)c3C2)nc(C)c1C(=O)N[C@@H](CNC(=O)c1cccs1)C(=O)O (stereo partly drawn) [Example 18, (S) 2-(2-[8-hydroxy-1,2,3,4-tetrahydro-naphthalen-2-ylamino]-4,6-dimethyl-pyrimidine-5-carbonyl-amino)-3-[(thiophene-2-carbonyl)-amino]-propionic acid]
0.085 µM	Cc1nc(NCCCc2cccc(O)c2)nc(C)c1C(=O)N[C@@H](CNC(=O)c1ccccn1)C(=O)O [Example 42, (S)-2-({2-[3-(3-hydroxy-phenyl)-propylamino]-4,6-dimethyl-pyrimidine-5-carbonyl}-amino)-3-[(pyridine-2-carbonyl)-amino]-propionic acid]
0.128 µM	Cc1nc(C)c(C(=O)NC[C@H](NC(=O)c2c(C)nc(NCCCc3cccc(O)c3)nc2C)C(=O)O)s1 [Example 43, (S)-2-({2-[3-(3-hydroxy-phenyl)-propylamino]-4,6-dimethyl-pyrimidine-5-carbonyl}-amino)-3-[(2,4-dimethyl-thiazole-5-carbonyl)-amino]-propionic acid]
0.115 µM	Cc1nc(NCCCc2cccc(O)c2)nc(C)c1C(=O)N[C@@H](CNC(=O)CC1CCCCC1)C(=O)O [Example 44, (S)-2-({2-[3-(3-hydroxy-phenyl)-propylamino]-4,6-dimethyl-pyrimidine-5-carbonyl}-amino)-3-[1-cyclohexyl-acetylamino]-propionic acid]
0.087 µM	Cc1nc(NCCCc2cccc(O)c2)nc(C)c1C(=O)N[C@@H](CNC(=O)c1nccc2ccccc12)C(=O)O [Example 45, (S)-2-({2-[3-(3-hydroxy-phenyl)-propylamino]-4,6-dimethyl-pyrimidine-5-carbonyl}-amino)-3-[(isoquinoline-1-carbonyl)-amino]-propionic acid]
0.07 µM	Cc1nc(NCCCc2cccc(O)c2)nc(C)c1C(=O)N[C@@H](CNC(=O)c1csc(-c2ccncc2)n1)C(=O)O [Example 47, (S)-2-({2-[3-(3-hydroxy-phenyl)-propylamino]-4,6-dimethyl-pyrimidine-5-carbonyl}-amino)-3-[(2-pyridin-4-yl-thiazole-4-carbonyl)-amino]-propionic acid]
1.98 µM	Cc1nc(NCCCc2cccc(O)n2)nc(C)c1C(=O)N[C@@H](CNC(=O)c1cccs1)C(=O)O [Example 52, (S)-2-({2-[3-(6-Hydroxy-pyridin-2-yl)-propylamino]-4,6-dimethyl-pyrimidine-5-carbonyl}-amino)-3-[(thiophene-2-carbonyl)-amino]-propionic acid]
1.3 µM	Cc1nc(NCCCc2ccc(F)c(O)c2)nc(C)c1C(=O)N[C@@H](CNC(=O)c1cccs1)C(=O)O [Example 65, (S)-2-({2-[3-(4-Fluoro-3-hydroxy-phenyl)-propylamino]-4,6-dimethyl-pyrimidine-5-carbonyl}-amino)-3-[(thiophene-2-carbonyl)-amino]-propionic acid]
0.111 µM	Cc1nc(NCCCc2cccc(O)c2C)nc(C)c1C(=O)N[C@@H](CNC(=O)c1cccs1)C(=O)O [Example 66, (S)-2-({2-[3-(3-Hydroxy-2-methyl-phenyl)-propylamino]-4,6-dimethyl-pyrimidine-5-carbonyl}-amino)-3-[(thiophene-2-carbonyl)-amino]-propionic acid]
0.329 µM	Cc1ccc(CCCNc2nc(C)c(C(=O)N[C@@H](CNC(=O)c3cccs3)C(=O)O)c(C)n2)cc1O [Example 67, (S)-2-({2-[3-(3-Hydroxy-4-methyl-phenyl)-propylamino]-4,6-dimethyl-pyrimidine-5-carbonyl}-amino)-3-[(thiophene-2-carbonyl)-amino]-propionic acid]
0.291 µM	Cc1nc(NCCCc2cc(O)ccc2Cl)nc(C)c1C(=O)N[C@@H](CNC(=O)c1cccs1)C(=O)O [Example 68, (S)-2-({2-[3-(2-Chloro-5-hydroxy-phenyl)-propylamino]-4,6-dimethyl-pyrimidine-5-carbonyl}-amino)-3-[(thiophene-2-carbonyl)-amino]-propionic acid]
0.028 µM	Cc1nc(NCCCc2ccc(O)cc2)nc(C)c1C(=O)N[C@@H](CNC(=O)c1cccs1)C(=O)O [Example 69, (S)-2-({2-[3-(4-Hydroxy-phenyl)-propylamino]-4,6-dimethyl-pyrimidine-5-carbonyl}-amino)-3-[(thiophene-2-carbonyl)-amino]-propionic acid]
≥ 3 µM	Cc1nc(NCCCc2cccc(O)c2F)nc(C)c1C(=O)N[C@@H](CNC(=O)c1cccs1)C(=O)O [Example 70, (S)-2-({2-[3-(2-Fluoro-3-hydroxy-phenyl)-propylamino]-4,6-dimethyl-pyrimidine-5-carbonyl}-amino)-3-[(thiophene-2-carbonyl)-amino]-propionic acid]
0.224 µM	Cc1nc(NCCCc2cc(O)ccc2F)nc(C)c1C(=O)N[C@@H](CNC(=O)c1cccs1)C(=O)O [Example 71, (S)-2-({2-[3-(2-Fluoro-5-hydroxy-phenyl)-propylamino]-4,6-dimethyl-pyrimidine-5-carbonyl}-amino)-3-[(thiophene-2-carbonyl)-amino]-propionic acid]
0.159 µM	Cc1ccc(O)cc1CCCNc1nc(C)c(C(=O)N[C@@H](CNC(=O)c2cccs2)C(=O)O)c(C)n1 [Example 72, (S)-2-({2-[3-(2-Methyl-5-hydroxy-phenyl)-propylamino]-4,6-dimethyl-pyrimidine-5-carbonyl}-amino)-3-[(thiophene-2-carbonyl)-amino]-propionic acid]
0.064 µM	O=C(N[C@@H](CNC(=O)c1cccs1)C(=O)O)c1cnc(NCCCc2cccc(O)c2)nc1 [Example 75, (S)-2-({2-[3-(3-Hydroxy-phenyl)-propylamino]-pyrimidine-5-carbonyl}-amino)-3-[(thiophene-2-carbonyl)-amino]-propionic acid]
0.378 µM	O=C(NC[C@H](NC(=O)c1cnc(NCCCc2cccc(O)c2)nc1C(F)(F)F)C(=O)O)c1cccs1 [Example 77, (S)-2-({2-[3-(3-Hydroxy-phenyl)-propylamino]-4-trifluoromethyl-pyrimidine-5-carbonyl}-amino)-3-[(thiophene-2-carbonyl)-amino]-propionic acid]
